Measured values from ChEMBL document CHEMBL5053529 (J Med Chem, 2021).
In brackets after ≈: the same amount, converted by molar mass. Values belong to the compound of their own block, whether it stands above or below them.

Legend:
[1] = Clearance in rat liver microsomes incubated up to 80 mins by LC-MS/MS analysis; format: ADME, Microsome; conditions: 1.333 h
[2] = Clearance in mouse liver microsomes incubated up to 80 mins by LC-MS/MS analysis; format: ADME, Microsome; conditions: 1.333 h
[3] = Clearance in human liver microsomes incubated up to 80 mins by LC-MS/MS analysis; format: ADME, Microsome; conditions: 1.333 h
[4] = AUC (0 to infinity) in Sprague-Dawley rat at 6 mg/kg, po; format: ADME, organism-based; parameters: time infinity, dose 6 mg/kg, route po; conditions: in vivo
[5] = AUC (0 to infinity) in C57BL/6 mouse at 6 mg/kg, po; format: ADME, organism-based; parameters: time infinity, dose 6 mg/kg, route po; conditions: in vivo
[6] = AUC (0 to infinity) in Beagle dog at 0.3 mg/kg, po; format: ADME, organism-based, Canis lupus familiaris; parameters: time infinity, dose 0.3 mg/kg, route po; conditions: in vivo
[7] = Cmax in Sprague-Dawley rat at 6 mg/kg, po; format: ADME, organism-based; parameters: dose 6 mg/kg, route po; conditions: in vivo
[8] = Cmax in C57BL/6 mouse at 6 mg/kg, po; format: ADME, organism-based; parameters: dose 6 mg/kg, route po; conditions: in vivo
[9] = Cmax in Beagle dog at 0.3 mg/kg, po; format: ADME, organism-based, Canis lupus familiaris; parameters: dose 0.3 mg/kg, route po; conditions: in vivo
[10] = Oral bioavailability in Sprague-Dawley rat at 6 mg/kg; format: ADME, organism-based; conditions: in vivo
[11] = Oral bioavailability in C57BL/6 mouse at 6 mg/kg; format: ADME, organism-based; conditions: in vivo
[12] = Oral bioavailability in Beagle dog at 0.3 mg/kg; format: ADME, organism-based, Canis lupus familiaris; conditions: in vivo
[13] = Hepatic clearance in Sprague-Dawley rat at 6 mg/kg, po; format: ADME, organism-based; conditions: in vivo
[14] = Hepatic clearance in Beagle dog at 0.3 mg/kg, po; format: ADME, organism-based, Canis lupus familiaris; conditions: in vivo
[15] = Clearance in Beagle dog at 6 mg/kg, po; format: ADME, organism-based, Canis lupus familiaris; conditions: in vivo
[16] = Volume of distribution in steady state in Sprague-Dawley rat at 6 mg/kg, po; format: ADME, organism-based; conditions: in vivo
[17] = Volume of distribution in steady state in C57BL/6 mouse at 6 mg/kg, po; format: ADME, organism-based; conditions: in vivo
[18] = Volume of distribution in steady state in Beagle dog at 0.3 mg/kg, po; format: ADME, organism-based, Canis lupus familiaris; conditions: in vivo
[19] = Half life in Sprague-Dawley rat at 6 mg/kg, po; format: ADME, organism-based; conditions: in vivo
[20] = Half life in C57BL/6 mouse at 6 mg/kg, po; format: ADME, organism-based; conditions: in vivo
[21] = Half life in Beagle dog at 0.3 mg/kg, po; format: ADME, organism-based, Canis lupus familiaris; conditions: in vivo
[22] = Kinetic solubility of the compound at pH 7.4; format: physicochemical; conditions: buffer, read-out: Kinetic_solubility
[23] = Thermodynamic solubility of the compound at pH 1; format: physicochemical; conditions: buffer, read-out: Therm_solubility
[24] = Thermodynamic solubility of the compound at pH 6.8; format: physicochemical; conditions: buffer, read-out: Therm_solubility
[25] = Octanol/water partition coefficient, log P of the compound; format: physicochemical
[26] = Solubility of the compound at pH 6.8; format: physicochemical; conditions: buffer
[27] = Drug concentration in Sprague-Dawley rat blood at 3 umol/kg, po measured after 4 hrs by LC-MS/MS analysis; format: ADME, organism-based; conditions: dose 3 µmol/kg, read-out: Drug uptake
[28] = Drug concentration in Sprague-Dawley rat blood at 10 umol/kg, po measured after 4 hrs by LC-MS/MS analysis; format: ADME, organism-based; conditions: dose 10 µmol/kg, read-out: Drug uptake
[29] = Drug concentration in Sprague-Dawley rat blood at 100 umol/kg, po measured after 4 hrs by LC-MS/MS analysis; format: ADME, organism-based; conditions: dose 100 µmol/kg, read-out: Drug uptake
[30] = Drug concentration in Sprague-Dawley rat blood at 30 umol/kg, po measured after 4 hrs by LC-MS/MS analysis; format: ADME, organism-based; conditions: dose 30 µmol/kg, read-out: Drug uptake
[31] = Drug concentration in Sprague-Dawley rat brain at 3 umol/kg, po measured after 4 hrs by LC-MS/MS analysis; format: ADME, organism-based; conditions: dose 3 µmol/kg, read-out: Drug uptake
[32] = Drug concentration in Sprague-Dawley rat brain at 10 umol/kg, po measured after 4 hrs by LC-MS/MS analysis; format: ADME, organism-based; conditions: dose 10 µmol/kg, read-out: Drug uptake
[33] = Drug concentration in Sprague-Dawley rat brain at 100 umol/kg, po measured after 4 hrs by LC-MS/MS analysis; format: ADME, organism-based; conditions: dose 100 µmol/kg, read-out: Drug uptake
[34] = Drug concentration in Sprague-Dawley rat brain at 30 umol/kg, po measured after 4 hrs by LC-MS/MS analysis; format: ADME, organism-based; conditions: dose 30 µmol/kg, read-out: Drug uptake
[35] = Unbound drug concentration in Sprague-Dawley rat brain at 3 umol/kg, po measured after 4 hrs by LC-MS/MS analysis; format: ADME, organism-based; conditions: in vivo, dose 3 µmol/kg
[36] = Unbound drug concentration in Sprague-Dawley rat brain at 10 umol/kg, po measured after 4 hrs by LC-MS/MS analysis; format: ADME, organism-based; conditions: in vivo, dose 10 µmol/kg
[37] = Unbound drug concentration in Sprague-Dawley rat brain at 100 umol/kg, po measured after 4 hrs by LC-MS/MS analysis; format: ADME, organism-based; conditions: in vivo, dose 100 µmol/kg
[38] = Unbound drug concentration in Sprague-Dawley rat brain at 30 umol/kg, po measured after 4 hrs by LC-MS/MS analysis; format: ADME, organism-based; conditions: in vivo, dose 30 µmol/kg

CLH [1]: 204 µL/min/mg | CLH [2]: 866 µL/min/mg
Structure (SMILES): COCCOc1cnc(C(=O)Nc2ccc(F)c([C@]3(C)CO[C@@](C)(C(F)(F)F)C(N)=N3)n2)c(N)n1

CLH [3]: 26 µL/min/mg | CLH [1]: 37 µL/min/mg | CLH [2]: 32 µL/min/mg | AUC [4]: 2.045 µM·h | AUC [5]: 1.16 µM·h | AUC(0-inf) [6]: 7.75 µM·h | Cmax [7]: 146 nM | Cmax [8]: 82 nM | Cmax [9]: 257 nM | bioavailability [10]: 60% | bioavailability [11]: 48% | bioavailability [12]: 57% | CLH [13]: 37 mL/min/kg | CLH [14]: 3.3 mL/min/kg | CL/F [15]: 2 mL/min/kg | Vdss [16]: 6.9 L/kg | Vdss [17]: 6.9 L/kg | Vdss [18]: 3.9 L/kg | half-life [19]: 13.3 h | half-life [20]: 9.5 h | half-life [21]: 23.4 h | solubility kinetic [22]: 15 µg/mL (≈ 29.2 µM) | solubility thermodynamic [23]: > 1500 µg/mL | solubility thermodynamic [24]: 23 µg/mL (≈ 44.8 µM) | logP [25]: 4.3 | solubility [26]: 13 µg/mL (≈ 25.3 µM) | concentration at 4 h [27]: 160 nM | concentration at 4 h [28]: 440 nM | concentration at 4 h [29]: 3430 nM | concentration at 4 h [30]: 1710 nM | concentration at 4 h [31]: 180 nM | concentration at 4 h [32]: 850 nM | concentration at 4 h [33]: 3600 nM | concentration at 4 h [34]: 3280 nM | Drug uptake(free) [35]: 0.002 µM | Drug uptake(free) [36]: 0.008 µM | Drug uptake(free) [37]: 0.03 µM | Drug uptake(free) [38]: 0.12 µM
Structure (SMILES): C[C@@]1(c2nc(NC(=O)c3ncc(C(F)(F)F)cc3Cl)ccc2F)CO[C@@](C)(C(F)(F)F)C(N)=N1

AUC [4]: 0.973 µM·h | Cmax [7]: 128 nM | CLH [13]: 17 mL/min/kg | Vdss [16]: 9 L/kg | half-life [19]: 4.9 h
Structure (SMILES): Cc1cc(C#N)cnc1C(=O)Nc1ccc(F)c([C@]2(C)CO[C@@](C)(C(F)(F)F)C(N)=N2)c1
